Measured values from patent publication US12239729B2, “TRPV3 agonists for the treatment of skin conditions” (Soricimed Biopharma Inc., priority 2012, dated 2025).
Peptide text beside a SMILES is read from it.

Target: T1, TRPV3 channels expressed in HEK-293 cells (Homo sapiens, UniProt Q8NET8)
T1 construct: expressed in transfected cells; host or cells: HEK-293 cells, transient transfection
T1 sequence (Q8NET8 1-790): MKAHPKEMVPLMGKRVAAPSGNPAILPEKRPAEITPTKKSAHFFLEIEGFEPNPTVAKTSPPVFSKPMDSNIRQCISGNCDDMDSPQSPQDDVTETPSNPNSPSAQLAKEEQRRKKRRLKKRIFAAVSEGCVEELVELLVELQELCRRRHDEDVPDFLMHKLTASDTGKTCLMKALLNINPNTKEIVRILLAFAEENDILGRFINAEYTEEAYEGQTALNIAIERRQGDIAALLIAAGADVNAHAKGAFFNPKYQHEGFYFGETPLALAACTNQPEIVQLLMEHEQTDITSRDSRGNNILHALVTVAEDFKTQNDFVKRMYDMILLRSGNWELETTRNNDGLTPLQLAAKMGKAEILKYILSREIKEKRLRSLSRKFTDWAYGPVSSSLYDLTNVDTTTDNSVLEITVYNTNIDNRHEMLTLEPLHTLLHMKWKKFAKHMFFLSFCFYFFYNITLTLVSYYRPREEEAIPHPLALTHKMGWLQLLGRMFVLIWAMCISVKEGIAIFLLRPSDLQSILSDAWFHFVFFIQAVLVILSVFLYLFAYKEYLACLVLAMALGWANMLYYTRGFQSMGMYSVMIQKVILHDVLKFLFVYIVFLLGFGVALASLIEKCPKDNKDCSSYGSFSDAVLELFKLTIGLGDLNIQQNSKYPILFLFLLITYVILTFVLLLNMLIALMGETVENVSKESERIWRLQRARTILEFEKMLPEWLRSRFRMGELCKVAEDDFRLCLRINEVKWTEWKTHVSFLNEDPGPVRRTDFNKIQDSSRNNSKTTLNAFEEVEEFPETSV
Test: Patch-clamp testing of TRPV3 channel activity in transfected HEK-293 cells
Type: cell-based
Procedure: SOR-C13, SOR-C27 and SOR-N54 were tested using a patch clamp screen to determine whether the peptide had any effect on the channel activity of TRPV3. Ruthenium red, a known antagonist of TRPV3 and 2-Aminoethoxydiphenyl Borate (2-APB) a known activator of TRPV3 were used as controls.
HEK 293 cells were maintained in ϕ30 mm cell culture plate in DMEM media supplemented with 10% fetal bovine serum and penicillin/streptomycin. Cells were grown in a humidified atmosphere of 95% air/5% CO2 at 37° C. in a cell culture incubator.
The cells from 70-90% confluence were prepared for transfection. For transient expression in HEK-293 cells 1 μg plasmid cDNA and pEGFP (in vivo reporter of gene expression) were used.
Recordings were performed at 20˜23° C. Currents were sampled using Digidata 1440A, amplified, and filtered at 2 kHz using Axopatch 200B, then acquired and analyzed using pClamp 10.0 (Molecular Devices, Sunny vales, CA, USA).
The pipette solution and bath solution contained 140 mM CsCl, 4 mM MgCl2, 10 mM EGTA, CsOH pH=7.3 and 130 mM NaCl, 5 mM KCl, 2 mM CaCl2), 1 mM MgCl2, 25 mM HEPES, 30 mM Glucose, pH=7.3, respectively.
Each peptide was diluted in the bath solution to the desired concentration (0.01 μM, 0.03 μM, 0.1 μM, 0.3 μM, 1 μM, 3 μM, or 10 μM), respectively.

## CC(C)C[C@H](NC(=O)[C@H](Cc1ccccc1)NC(=O)[C@H](CCC(=O)O)NC(=O)[C@@H](N)CCCCN)C(=O)N[C@@H](Cc1cnc[nH]1)C(=O)N1CCC[C@H]1C(=O)N[C@@H](CO)C(=O)N[C@@H](CCCCN)C(=O)N[C@H](C(=O)N[C@@H](CC(=O)O)C(=O)N[C@@H](CC(C)C)C(=O)N1CCC[C@H]1C(=O)N[C@@H](CCCNC(=N)N)C(=O)O)C(C)C [SOR-C13, KEFLHPSKVDLPR] (H-KEFLHPSKVDLPR-OH)
  EC50: 0.0217 µM
